Reference: ChEMBL document CHEMBL6153032, “Discovery of a highly potent, N-terminal domain-targeting degrader of AR-FL/AR-V7 for the treatment of prostate cancer” (Eur J Med Chem, 2025)
Active and inactive are the calls of the source. No cut-off for these calls is given here.

Tests used:
CWR22R [1] = test: Antitumor activity against human 22Rv1 cells xenografted in BALB/c nude mouse assessed as redcution in tumor volume at 10 mg/kg, iv administered once daily for 21 days; type: functional, organism-based; conditions: time 21.0 day
[2] = system: Protein cereblon/Androgen receptor (Homo sapiens), P10275+Q96SW2 [UNDEFINED MUTATION]; test: PROTAC activity at AR-V7/CRBN in human 22Rv1 cells assessed as induction of AR-V7 degradation at 1 uM incubated for 24 hrs by Western blot analysis relative to control; type: cell-based; conditions: CWR22R
CWR22R [3] = test: Antiproliferative activity against human 22Rv1 cells incubated for 4 days by CCK-8 assay; type: functional, cell-based; conditions: 22Rv1, 96 h
[4] = system: Protein cereblon/Androgen receptor (Homo sapiens), P10275+Q96SW2 [UNDEFINED MUTATION]; test: PROTAC activity at AR-V7/CRBN in human 22Rv1 cells assessed as induction of AR-V7 degradation at 5 uM incubated for 24 hrs by Western blot analysis relative to control; type: cell-based; conditions: CWR22R
[5] = molecular target: T1, Protein cereblon/Androgen receptor (Homo sapiens, UniProt P10275+Q96SW2); test: PROTAC activity at full length Androgen receptor/CRBN in human LNCaP cells assessed as reduction in full length androgen receptor level incubated for 24 hrs by Western blot analysis; type: cell-based
[6] = system: Protein cereblon/Androgen receptor (Homo sapiens), P10275+Q96SW2 [UNDEFINED MUTATION]; test: (§1) PROTAC activity at AR-V7/CRBN in human 22Rv1 cells assessed as reduction in AR-V7 level incubated for 24 hrs by Western blot analysis; type: cell-based; conditions: CWR22R, dose <= 5.0 µM
[7] = molecular target: T1, Protein cereblon/Androgen receptor; test: as §1; type: cell-based; conditions: cwr22r
Target sequence in this assay (P10275 whole entry, looked up, change not shown): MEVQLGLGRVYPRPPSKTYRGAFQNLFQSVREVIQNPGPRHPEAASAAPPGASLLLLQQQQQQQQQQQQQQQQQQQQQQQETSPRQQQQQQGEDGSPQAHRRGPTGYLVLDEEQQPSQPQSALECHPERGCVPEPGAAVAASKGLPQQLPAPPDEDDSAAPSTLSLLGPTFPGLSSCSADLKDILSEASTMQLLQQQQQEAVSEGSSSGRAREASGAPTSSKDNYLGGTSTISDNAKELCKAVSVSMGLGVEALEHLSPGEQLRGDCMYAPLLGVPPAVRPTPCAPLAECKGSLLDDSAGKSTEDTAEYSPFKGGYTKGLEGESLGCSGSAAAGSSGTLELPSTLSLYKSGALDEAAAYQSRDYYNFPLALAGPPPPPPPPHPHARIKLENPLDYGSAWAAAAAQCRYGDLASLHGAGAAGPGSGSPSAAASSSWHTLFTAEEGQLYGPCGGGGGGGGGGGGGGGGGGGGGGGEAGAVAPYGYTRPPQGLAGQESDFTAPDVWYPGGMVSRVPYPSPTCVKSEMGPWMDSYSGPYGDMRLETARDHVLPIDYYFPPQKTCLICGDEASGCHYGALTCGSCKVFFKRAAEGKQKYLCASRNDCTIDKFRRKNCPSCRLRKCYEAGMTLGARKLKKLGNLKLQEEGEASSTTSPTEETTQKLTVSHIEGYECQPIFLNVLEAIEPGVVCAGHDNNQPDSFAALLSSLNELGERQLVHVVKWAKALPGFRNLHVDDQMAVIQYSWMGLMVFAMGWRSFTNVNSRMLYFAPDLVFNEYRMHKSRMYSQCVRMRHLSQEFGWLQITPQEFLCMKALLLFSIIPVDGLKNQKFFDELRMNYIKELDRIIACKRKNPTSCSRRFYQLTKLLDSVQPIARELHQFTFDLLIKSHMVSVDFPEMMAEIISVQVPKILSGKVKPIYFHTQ
Target sequence in this assay (Q96SW2 whole entry, looked up, change not shown): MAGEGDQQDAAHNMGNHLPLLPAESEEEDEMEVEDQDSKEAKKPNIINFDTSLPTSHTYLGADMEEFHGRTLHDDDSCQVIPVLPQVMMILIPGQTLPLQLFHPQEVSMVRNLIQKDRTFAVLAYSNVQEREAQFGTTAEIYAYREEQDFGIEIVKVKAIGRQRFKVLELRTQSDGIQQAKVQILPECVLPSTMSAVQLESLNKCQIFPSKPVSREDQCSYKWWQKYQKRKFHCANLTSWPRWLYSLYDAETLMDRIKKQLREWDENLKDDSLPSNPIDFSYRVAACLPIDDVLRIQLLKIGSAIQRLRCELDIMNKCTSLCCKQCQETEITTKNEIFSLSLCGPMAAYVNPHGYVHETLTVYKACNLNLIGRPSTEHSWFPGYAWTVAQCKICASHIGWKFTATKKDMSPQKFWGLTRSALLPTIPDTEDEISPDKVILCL

LNCaP [8] = test: PROTAC activity at AR-V7/CRBN in human LNCaP cells assessed as reduction in AR-V7 level incubated for 24 hrs by Western blot analysis; type: cell-based; conditions: dose <= 5.0 µM
[9] = molecular target: T1, Protein cereblon/Androgen receptor; test: PROTAC activity at full length Androgen receptor/CRBN in human 22Rv1 cells assessed as reduction in full length androgen receptor level at 1 uM by Western blot analysis; type: cell-based; conditions: time 6.0 hrs
Target sequence in this assay (P10275 whole entry, looked up): as the sequence (P10275 whole entry, looked up, change not shown) above
Target sequence in this assay (Q96SW2 whole entry, looked up): as the sequence (Q96SW2 whole entry, looked up, change not shown) above

[10] = molecular target: T1, Protein cereblon/Androgen receptor; test: PROTAC activity at full length Androgen receptor/CRBN in human 22Rv1 cells assessed as reduction in full length androgen receptor level at 100 nM incubated for 24 hrs by immunofluorescence analysis; type: cell-based
Target sequence in this assay (P10275 whole entry, looked up): as the sequence (P10275 whole entry, looked up, change not shown) above
Target sequence in this assay (Q96SW2 whole entry, looked up): as the sequence (Q96SW2 whole entry, looked up, change not shown) above

CWR22R [11] = test: Downregulation of PSA mRNA level in human 22Rv1 cells incubated for 24 hrs by qRT-PCR analysis; type: functional, cell-based; conditions: dose 100-500 nM
CWR22R [12] = test: Downregulation of TMPRSS2 mRNA level in human 22Rv1 cells incubated for 24 hrs by qRT-PCR analysis; type: functional, cell-based; conditions: dose 100-500 nM
[13] = molecular target: T1, Protein cereblon/Androgen receptor; test: PROTAC activity at full length Androgen receptor/CRBN in human 22Rv1 cells assessed as induction of full length androgen receptor degradation at 100 nM incubated for 12 hrs in presence of MLN4924 by Western blot analysis; type: cell-based
Target sequence in this assay (P10275 whole entry, looked up): as the sequence (P10275 whole entry, looked up, change not shown) above
Target sequence in this assay (Q96SW2 whole entry, looked up): as the sequence (Q96SW2 whole entry, looked up, change not shown) above

[14] = system: Protein cereblon/Androgen receptor (Homo sapiens), P10275+Q96SW2 [UNDEFINED MUTATION]; test: PROTAC activity at AR-V7/CRBN in human 22Rv1 cells assessed as induction of AR-V7 degradation at 100 nM incubated for 12 hrs in presence of MLN4924 by Western blot analysis; type: cell-based; conditions: CWR22R
LNCaP [15] = test: Antiproliferative activity against human LNCaP cells assessed as cell viability incubated for 4 days by CCK-8 assay; type: functional, cell-based; conditions: 96 h
DU-145 = test: Antiproliferative activity against human DU-145 cells assessed as cell viability incubated for 4 days by CCK-8 assay; type: functional, cell-based; conditions: DU-145, 96 h
[16] = Antiproliferative activity against human RWPE-1 cells assessed as cell viability incubated for 4 days by CCK-8 assay; type: toxicity, cell-based
CWR22R [17] = test: Induction of apoptosis in human 22Rv1 cells assessed as late apoptotic cells at 100 nM incubated for 48 hrs by Annexin V/FITC staining based flow cytometry analysis (reference value: 1.12 %); type: functional
CWR22R [18] = test: Induction of apoptosis in human 22Rv1 cells assessed as necrotic cells at 100 nM incubated for 48 hrs by Annexin V/FITC staining based flow cytometry analysis (reference value: 2.31 %); type: functional
CWR22R [19] = test: Induction of apoptosis in human 22Rv1 cells assessed as viable cells at 500 nM incubated for 48 hrs by Annexin V/FITC staining based flow cytometry analysis (reference value: 94.49%); type: functional; conditions: read-out: Activity
CWR22R [20] = test: Induction of apoptosis in human 22Rv1 cells assessed as early apoptotic cells at 500 nM incubated for 48 hrs by Annexin V/FITC staining based flow cytometry analysis (reference value: 2.08 %); type: functional
CWR22R [21] = test: Induction of cell cycle arrest in human 22Rv1 cells assessed as accumulation of cells at G2/M phase at 100 nM incubated for 24 hrs by PI staining based flow cytometry analysis (reference value: 8.61%); type: functional
CWR22R [22] = test: Induction of cell cycle arrest in human 22Rv1 cells assessed as accumulation of cells at G0/G1 phase at 500 nM incubated for 24 hrs by PI staining based flow cytometry analysis (reference value: 62.66%); type: functional
CWR22R [23] = test: Induction of cell cycle arrest in human 22Rv1 cells assessed as accumulation of cells at S phase at 500 nM incubated for 24 hrs by PI staining based flow cytometry analysis (reference value: […]%); type: functional
[24] = Half life in Sprague-Dawley rat 2 mg/kg, iv by LC-MS/MS analysis; type: ADME, organism-based; conditions: in vivo
[25] = Tmax in Sprague-Dawley rat 2 mg/kg, iv by LC-MS/MS analysis; type: ADME, organism-based; conditions: in vivo
[26] = MRT (0 to infinity) in Sprague-Dawley rat 2 mg/kg, iv by LC-MS/MS analysis; type: ADME, organism-based; conditions: in vivo
[27] = Volume of distribution at steady state in Sprague-Dawley rat 2 mg/kg, iv by LC-MS/MS analysis; type: ADME, organism-based; conditions: in vivo, read-out: Vdss
[28] = molecular target: Voltage-gated inwardly rectifying potassium channel KCNH2 (Homo sapiens, UniProt Q12809); test: Inhibition of hERG; type: toxicity
hERG = hERG (Homo sapiens, UniProt Q12809); test: Inhibition of hERG at 10 uM relative to control; type: toxicity
CWR22R [29] = test: Antitumor activity against human 22Rv1 cells xenografted in BALB/c nude mouse assessed as redcution in tumor weight at 10 mg/kg, iv administered once daily for 21 days; type: functional, organism-based; conditions: time 21.0 day
CWR22R [30] = test: Antitumor activity against human 22Rv1 cells xenografted in BALB/c nude mouse assessed as suppression of tumor growth at 10 mg/kg, iv administered once daily for 21 days; type: functional, organism-based; conditions: time 21.0 day
[31] = Toxicity in BALB/c mouse assessed as body weight loss at 10 mg/kg, iv administered once daily for 21 days; type: organism-based; conditions: in vivo, 504 h, time 21 day
CWR22R [32] = test: Antitumor activity against human 22Rv1 cells xenografted in BALB/c nude mouse assessed as reduction in AR level at 10 mg/kg, iv administered once daily for 21 days; type: functional, organism-based; conditions: time 21.0 day
CWR22R [33] = test: Antitumor activity against human 22Rv1 cells xenografted in BALB/c nude mouse assessed as reduction in AR-v7 level at 10 mg/kg, iv administered once daily for 21 days; type: functional, organism-based; conditions: time 21.0 day
[34] = Toxicity in BALB/c mouse assessed as heart damage at 10 mg/kg, iv administered once daily for 21 days by H and E staining based analysis; type: organism-based; conditions: in vivo, 504 h, time 21 day
[35] = Toxicity in BALB/c mouse assessed as liver damage at 10 mg/kg, iv administered once daily for 21 days by H and E staining based analysis; type: organism-based; conditions: in vivo, 504 h, time 21 day

Protein cereblon/Androgen receptor (Homo sapiens), P10275+Q96SW2 [UNDEFINED MUTATION], sequence (P10275 whole entry, looked up, stated change not applied): as the sequence (P10275 whole entry, looked up, change not shown) above
Protein cereblon/Androgen receptor (Homo sapiens), P10275+Q96SW2 [UNDEFINED MUTATION], sequence (Q96SW2 whole entry, looked up, stated change not applied): as the sequence (Q96SW2 whole entry, looked up, change not shown) above
Voltage-gated inwardly rectifying potassium channel KCNH2, sequence (Q12809 whole entry): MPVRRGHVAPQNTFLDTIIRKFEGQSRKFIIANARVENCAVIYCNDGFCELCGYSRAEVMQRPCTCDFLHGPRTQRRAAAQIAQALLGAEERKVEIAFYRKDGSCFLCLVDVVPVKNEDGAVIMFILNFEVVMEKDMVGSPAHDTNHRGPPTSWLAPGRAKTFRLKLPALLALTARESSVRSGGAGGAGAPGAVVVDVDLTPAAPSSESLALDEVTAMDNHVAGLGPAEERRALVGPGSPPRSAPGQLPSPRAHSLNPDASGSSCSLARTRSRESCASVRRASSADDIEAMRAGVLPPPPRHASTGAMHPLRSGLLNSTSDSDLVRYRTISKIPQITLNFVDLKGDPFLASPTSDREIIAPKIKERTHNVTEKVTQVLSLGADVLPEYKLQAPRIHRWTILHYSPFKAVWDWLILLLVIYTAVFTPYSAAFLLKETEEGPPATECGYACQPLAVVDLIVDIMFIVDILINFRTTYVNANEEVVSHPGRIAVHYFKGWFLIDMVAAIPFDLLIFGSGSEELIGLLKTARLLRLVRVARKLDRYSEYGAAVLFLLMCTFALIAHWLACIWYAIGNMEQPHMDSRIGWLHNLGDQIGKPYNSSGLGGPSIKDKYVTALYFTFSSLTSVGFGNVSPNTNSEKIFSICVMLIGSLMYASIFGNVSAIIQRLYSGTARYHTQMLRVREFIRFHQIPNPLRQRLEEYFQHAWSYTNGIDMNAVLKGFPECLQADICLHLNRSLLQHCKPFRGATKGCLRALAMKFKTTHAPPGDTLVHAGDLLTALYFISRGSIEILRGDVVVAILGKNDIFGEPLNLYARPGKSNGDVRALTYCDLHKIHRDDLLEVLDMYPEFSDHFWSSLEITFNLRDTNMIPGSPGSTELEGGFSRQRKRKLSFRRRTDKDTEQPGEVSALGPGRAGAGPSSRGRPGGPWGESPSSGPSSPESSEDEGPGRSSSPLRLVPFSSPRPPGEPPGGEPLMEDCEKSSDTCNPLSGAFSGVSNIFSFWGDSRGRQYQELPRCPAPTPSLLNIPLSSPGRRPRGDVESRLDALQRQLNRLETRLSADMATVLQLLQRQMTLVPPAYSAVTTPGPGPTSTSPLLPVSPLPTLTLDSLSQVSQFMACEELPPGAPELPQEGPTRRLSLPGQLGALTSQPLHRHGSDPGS
hERG, sequence (Q12809 whole entry): as above

- Activity [2]: 88.7%
- Activity [4]: 89.6%
- DC50 [5]: 180 nM
- Activity ([5]; dose <= 5.0 µM): Dose-dependent-effect
- Activity [6]: Dose-dependent-effect
- DC50 [7]: 26 nM
- Activity [9]: Time-dependent-effect
- Activity [10]: Active
- Activity [13]: Active
- Activity [14]: Active
- IC50 (LNCaP [15]): 176 nM
- IC50 (DU-145): > 80000 nM
- half-life [24]: 158 min
- Tmax [25]: 4.98 min
- MRT inf [26]: 37.2 min
- Vd [27]: 0.571 L/kg
SMILES: CC(C)(c1ccc(OCCNc2cccc3c2C(=O)N(C2CCC(=O)NC2=O)C3=O)cc1)c1ccc(OCc2cccc(N3CCOCC3)n2)cc1 (stereo not drawn)
- Activity (CWR22R [1]): Active
- IC50 (CWR22R [3]): 38 nM
- Activity (LNCaP [8]): Dose-dependent-effect
- Activity (CWR22R [11]): Dose-dependent-effect
- Activity (CWR22R [12]): Dose-dependent-effect
- IC50 at 4 days [16]: > 80000 nM
- Activity (CWR22R [17]): 12.29%
- Activity (CWR22R [18]): 2.13%
- viability at 0.5 µM (CWR22R [19]): 65.1%
- Activity (CWR22R [20]): 16.93%
- Activity (CWR22R [21]): 15.45%
- Activity (CWR22R [22]): 39.88%
- Activity (CWR22R [23]): 38.58%
- IC50 [28]: > 10000 nM
- inhibition at 10 µM (hERG): < 40%
- Activity (CWR22R [29]): Active
- Activity (CWR22R [30]): Active
- Activity [31]: Non-toxic
- Activity (CWR22R [32]): Active
- Activity (CWR22R [33]): Active
- Activity [34]: Non-toxic
- Activity [35]: Non-toxic
